From article PMC7288168, “Synthesis and Cytotoxic Activity of Chiral Sulfonamides Based on the 2-Azabicycloalkane Skeleton” (Molecules, 2020)
Entries after “also recorded” stand apart in the source; their conditions may differ.

How the values were obtained:
[1] = Solubility in DMSO for in vitro tests; type: physicochemical; settings: DMSO used for the in vitro tests
Experimental: All tested compounds were dissolved in dimethyl sulfoxide (DMSO). […] To assess the anticancer activity of compounds, we tested human hepatocellular carcinoma (HCC), medulloblastoma (MB), and glioblastoma (GBM) cell lines. Further, to compare the effects of selected compounds on nonmalignant primary cells, we used primary human umbilical vein endothelial cells (HUVEC).
We planned to use compounds 8 and 9 as references in the current study. […] In our further studies, we plan to compare activities of all compounds using ethanol as the solvent.

D425 cells [2] = test system: D425 cells; set-up: method as in von Bueren et al. [31]; settings: known chemotherapeutics in D425 cells; ref von Bueren et al. [31]; cited from earlier work
human colon cancer HT-29 = test system: human colon cancer HT-29; set-up: method as in doi:10.1016/j.tetasy.2016.06.009; settings: colon cancer line; cited from earlier work
HUH7 cells = test: Neutral red cell viability assay, HUH7; type: cell-based, human; settings: Homo sapiens, Huh-7; 24 h treatment, neutral red; read-out: LD50 HUH7 (HCC)
Experimental: (§1) The human hepatocellular carcinoma (HCC) cell line HUH7 was purchased from ATCC (LGC standards GmbH, Wesel, Germany). The Austrian human HCC cell line AKH12 has been well characterized and was kindly provided by Prof. Bettina Grasl-Kraupp. HUH7 cells were cultured in Dulbecco’s modified Eagle’s medium (Thermo Fisher Scientific, Waltham, MA, USA) containing 10% heat-inactivated fetal bovine serum (FBS) (Sigma-Aldrich, St. Louis, MO, USA), 1% penicillin-streptomycin (10,000 U/mL) (Thermo Fisher Scientific, Waltham, MA, USA), and 1% minimum essential medium nonessential amino acids (100x) (Thermo Fisher Scientific, Waltham, MA, USA). AKH12 cells were cultured in RPMI1640 medium (Sigma-Aldrich, St. Louis, MO, USA) containing 10% heat-inactivated FBS. DAOY and D283Med (short D283) medulloblastoma (MB) cells were purchased from ATCC (LGC standards GmbH, Wesel, Germany). D425Med (short D425) and UW228-2 were provided by Thomas Ströbel from the Institute of Neurology Medical University of Vienna. The cells were cultured in Dulbecco’s modified Eagle’s medium (Sigma-Aldrich, St. Louis, MO, USA) containing 10% FBS (Sigma-Aldrich, St. Louis, MO, USA), 2% L-Glutamine (Sigma-Aldrich, St. Louis, MO, USA), and 0.2% Normocin (Sigma-Aldrich, St. Louis, MO, USA). U-251 MG (short U251) glioblastoma (GBM) cell line was purchased from Sigma-Aldrich and cultured in Dulbecco’s modified Eagle’s medium (Sigma-Aldrich, St. Louis, MO, USA) containing 10% FBS (Sigma-Aldrich, St. Louis, MO, USA), 2% L-Glutamine (Sigma-Aldrich, St. Louis, MO, USA), and 0.2% Normocin (Sigma-Aldrich, St. Louis, Missouri, USA). Human umbilical vein endothelial cells (HUVECs) were provided by Brigitte Winter from the Department of Surgery Medical University of Vienna and were grown in endothelial cell growth medium-2 BulletKitTM (Lonza, Basel, Switzerland) under standard tissue culture conditions. All cells were incubated at 37 °C in a 5% CO2 atmosphere and regularly checked for mycoplasma contamination.
(§2) Cell viability was determined using a neutral red assay, as previously described. The cells were placed in 24-well plates and grown to reach 70–80% confluency prior to treatment. After treatment for 24 h, cells were incubated with neutral red at a concentration of 50 µg/mL in serum-free medium for 2 h at 37 °C. Cells were then washed 2x and incubated with 1% acetic acid in 70% ethanol. The dye concentration was measured photometrically at 562 nm. The percentage of survival was calculated considering DMSO-treated (indicated as 0 µM concentration) cells as 100% control.
(§3) LD50 was defined as the amount of a toxic agent required to eliminate 50% of the cell population. The LD50 was calculated in each experiment from the respective dose–response curve. All experiments were performed in triplicate wells.

DAOY cells = test: Neutral red cell viability assay, DAOY; type: cell-based, human
Experimental: as §1, §2, §3

HUVEC cells [3] = test: Neutral red cell viability assay, HUVEC (Table 1); type: cell-based; settings: Table 1, nonmalignant primary cells, 24 h
Experimental: as §1, §2, §3

HUVEC cells [4] = test: Cell viability assay MTT/CellTiter Blue, HUVEC (Table 2); type: cell-based; settings: Table 2, nonmalignant primary cells, 24 h, assay as for D425
Experimental: as §1, §3
(§4) One day before treatment, 2 × 10^4 of D425Med or HUVEC cells were seeded into 24-well plates and incubated at 37 °C in a humidified atmosphere containing 5% CO2.The cells were treated with different compounds for 24 h. A […] assay using the CellTiter Blue reagent (Promega, Fitchburg, Wisconsin, USA) was performed according to the manufacturer’s protocol. Experiments were performed in triplicate and repeated three times. The percentage of survival was calculated as the ratio using DMSO-treated (indicated as 0 µM concentration) cells as 100% control.

UW228-2 cells = test: Neutral red cell viability assay, UW228-2; type: cell-based, human
Experimental: as §1, §2, §3

U251 cells = test: Neutral red cell viability assay, U251; type: cell-based, human
Experimental: as §1, §2, §3

D283 cells = test: Neutral red cell viability assay, D283; type: cell-based, human
Experimental: as §1, §2, §3

D425 cells [5] = test: Cell viability assay (suspension cell line), MTT/CellTiter Blue, D425; type: cell-based, human
Experimental: as §1, §3, §4

AKH12 cells = test: Neutral red cell viability assay, AKH12; type: cell-based, human
Experimental: as §1, §2, §3

For `Cc1ccc(-c2ccc(S(=O)(=O)N(CCN(CC3C4CCC(C4)N3C(C)c3ccccc3)S(=O)(=O)c3ccc(-c4ccc(C)cc4)cc3)CC3C4CCC(C4)N3C(C)c3ccccc3)cc2)cc1` [Compound 12b, Bis-4’-methyl-N,N-{[(1S,3R,4R)-2-((S)-1-phenylethyl)-2-azabicyclo[2.2.1]heptan-3-yl]methyl}-[1,1'-biphenyl]ethyl-4-sulfonamide], the “solubility in DMSO” value [1] was “not sufficient” and the melting point was 120 to 125 °C.
For `COc1cc([C@@H]2c3cc4c(cc3[C@@H](O[C@@H]3O[C@@H]5CO[C@@H](C)O[C@H]5[C@H](O)[C@H]3O)[C@H]3COC(=O)[C@H]23)OCO4)cc(OC)c1O` [etoposide], the “LD50 D425” value (D425 cells [2]) is given as 8 µM.
For `CC(c1ccccc1)N1C2CCC(C2)C1CN(CCN(CC1C2CCC(C2)N1C(C)c1ccccc1)S(=O)(=O)c1ccc(-c2ccc(Cl)cc2)cc1)S(=O)(=O)c1ccc(-c2ccc(Cl)cc2)cc1` [Compound 12d, Bis-4’-chloro-N,N-{[(1S,3R,4R)-2-((S)-1-phenylethyl)-2-azabicyclo[2.2.1]heptan-3-yl]methyl}-[1,1'-biphenyl]ethyl-4-sulfonamide], the “solubility in DMSO” value [1] was “not sufficient” and the melting point was 252 to 255 °C.
In the case of `CC(c1ccccc1)N1C2CCC(C2)C1CNCCNCC1C2CCC(C2)N1C(C)c1ccccc1` (stereo not drawn) [Compound 8], the “solubility in DMSO” value [1] is listed as “not sufficient; also recorded: insufficiently soluble” and the IC50 (human colon cancer HT-29) is listed as 7.2 ± 0.8 µM.
For `N.N.[Cl][Pt][Cl]` [cisplatin], the IC50 (human colon cancer HT-29) is listed as 9.7 ± 2 µM.
For `CC(c1ccccc1)N1C2CCC(C2)C1CNCC1C2CCC(C2)N1C(C)c1ccccc1` (stereo not drawn) [Compound 9], the “solubility in DMSO” value [1] was “not sufficient; also recorded: insufficiently soluble”.
With `CC(c1ccccc1)N1C2CCC(C2)C1CNS(=O)(=O)c1ccc(-c2ccc(F)cc2)cc1` [Compound 10c, 4-(4-Fluorophenyl)-N-((2-((S)-1-phenylethyl)-(1S,3R,4R)-2-azabicyclo[2.2.1]heptane-3-yl)benzenesulfonamide] the IC50 (HUH7 cells) was 17.3 ± 0.98 µM, the “reduction of cell viability, DAOY” value (DAOY cells; 50 µM, 24 h, first screening) was “reduced cell viability” and the IC50 (DAOY cells; Homo sapiens, Daoy, 24 h treatment, neutral red, read-out: LD50 DAOY (MB)) was 16 ± 2.1 µM. For the same molecule, the “LD50 HUVEC” value (HUVEC cells [3]) was 13.8 ± 1.14 µM, the “LD50 HUVEC” value (HUVEC cells [4]) was 16.77 ± 0.71 µM and the “reduction of cell viability, UW228-2” value (UW228-2 cells; 50 µM, 24 h, first screening) was “reduced cell viability”. The IC50 (UW228-2 cells; Homo sapiens, UW228-2, 24 h treatment, neutral red, read-out: LD50 UW228-2 (MB)) was 15.7 ± 1.32 µM, the “decrease of cell viability, U251” value (U251 cells; 50 µM, 24 h, first screening) was “more than 50%” and the IC50 (U251 cells; Homo sapiens, U-251, 24 h treatment, neutral red, read-out: LD50 U251 (GBM)) was 21.3 ± 1.01 µM. The “reduction of cell viability, D283” value (D283 cells; 50 µM, 24 h, first screening) was “reduced cell viability”, the IC50 (D283 cells; Homo sapiens, D283, 24 h treatment, read-out: LD50 D283 (MB)) was 27.2 ± 2.35 µM and the “reduction of cell viability, D425” value (D425 cells [5]; 50 µM, 24 h, first screening) was “reduced cell viability”. For the same molecule, the “LD50 D425 (MB)” value (D425 cells [5]; 24 h treatment, suspension cell assay) was 5.38 ± 0.77 µM, the IC50 (D425 cells [5]; Homo sapiens, 24 h treatment, suspension cell assay, read-out: LD50 D425 (MB)) was 5.38 µM and the “D425 cell viability as compared to HUVEC cells” value (D425 cells [5]; dose-response 24 h, Student's t-test, p ≤0.05 / p ≤0.01) was “significantly reduced D425 cell viability as compared to HUVEC cells”. The “HUVEC/D425 LD50 Fold Change” value (D425 cells [5]; ratio of LD50 HUVEC to LD50 D425) was 3.11, the “reduction of cell viability, AKH12” value (AKH12 cells; 50 µM, 24 h, first screening) was “reduced cell viability below LD50” and the IC50 (AKH12 cells; Homo sapiens, 24 h treatment, neutral red, read-out: LD50 AKH12 (HCC)) was 23.3 ± 2.1 µM.
